The subject of data set [1] is HepG2 cells. Put plainly: Subcellular localization by CLSM. It is filed as cell-based. Particulars: 1 μM CPT, 4 h. The procedure: HepG2 and L02 cells were seeded on cover glasses embedded in 24-well culture plates at densities of 5 × 10^4 cells/well. After 24 h, conjugates were added at a 1 μM CPT concentration and co-incubated with the cells for 4 h at 37 °C. Then, after the conjugate solutions were removed, the cells were treated with 50 nM MitoTracker deep red for 30 min and 10 mM Basic Orange 14 for 10 min to stain mitochondria and nuclei, respectively (Paleos et al., [2016]). Then, the cells were fixed with 4% paraformaldehyde, washed three times with ice-cold PBS (pH 7.4), and visualized using CLSM.

Data set [2] relates to HepG2 cells. The data set is described as follows: Cell-cycle analysis by flow cytometry (PI). Format: cell-based. Conditions: 1 μM CPT, 24 h, control cells 21.30%. The procedure:
The cell-cycle percentage of HepG2 was analyzed using flow cytometer. […] After 24 h, the cells were trypsinized, washed with PBS, and fixed with 4 °C pre-cooling 70% ethanol overnight at −20 °C. […] Finally, the cells were stained with propidium iodide (PI) solution for 20 min and determined by flow cytometer.

The test system of data set [3] is HepG2 cells. Put plainly: Apoptosis assay, Annexin V-FITC/PI double staining. Conditions: 1 μM CPT, 24 h. Format: cell-based. The procedure:
The apoptosis induction effect of conjugates on HepG2 cells was detected by Annexin V-FITC/PI double staining method. […] After 24 h, the cells were trypsinized (without EDTA), washed with PBS (containing 2% BSA), stained by 5 μL of Annexin V-FITC and 5 μL of 100 μg/mL PI, and re-suspended in 500 μL of binding buffer. After 15 min incubation, cells were determined by flow cytometer.

The subject of data set [4] is H22 tumor-bearing mice. The procedure:
(§1) An H22 tumor-bearing mice model was established based on previously reported method (Li et al., [2014]). Ascitic fluid containing H22 cells was extracted and diluted with PBS (pH 7.0) to 1 × 10^7 cells/ml. The mice (20–22 g) were anesthetized with 5% chloral hydrate and subcutaneously injected with 0.2 ml of cell suspension for armpit tumor implantation. All animal studies were approved by the China Animal Care and Use Committee and carried out according to the Guide for the Care and Use of Laboratory Animals of Beijing University of Chinese Medicine.
(§2) The tumor-bearing mice were randomly divided into five groups (10 per group). The control group mice were administered saline. […] Body weights were recorded daily. At day 12, four mice of each group were sacrificed by carbon dioxide asphyxiation. Tumors, livers and spleens were collected and fixed with 10% paraformaldehyde for 48 h. These tissues were cut into […] sections and processed for H&E staining. The remaining […] in each group were also sacrificed, and the tumors were collected and weighed.

The test system of data set [5] is HepG2 MCTS. The data set is described as follows: Uptake in multicellular tumor spheroids (MCTS), CLSM. It is filed as cell-based. Particulars: 1 μM, 8 h, 100 µm depth. The procedure: Besides that, a multicellular tumor spheroids (MCTS) model, which was more suitable for mimicking the tumor microenvionment, was also employed as a supplement to monolayer cell model for better estimating in vitro targeting efficacy (Kunz-Schughart, [1999]). MCTS model was established by the liquid overlay method as described before (Friedrich et al., [2008]). Briefly, HepG2 cells were seeded in 96-well plates coated with 2% agarose at 2 × 10^3 cells per well and incubated for 5 d. […] Thereafter, MCTS were collected by centrifugation, washed with PBS, and observed by confocal laser scanning microscope (CLSM) (Olympus FV1000, Tokyo, Japan) at 100 µm depth of the MCTS (about the middle section of the sphere).

Data set [6] concerns HepG2 cells (GLUT1-overexpressing). Particulars: 1 μM CPT, flow cytometry.
Experimental: HepG2 and L02 cells were seeded into 96-well culture plates at a density of 1.2 × 10^4 cells/well and incubated for 24 h. After the confluency and morphology were checked, 1 μM conjugates (calculated from CPT) were added to each well and co-incubated with the cells for different times (1, 4, and 8 h). […] The D-GLU was a substrate as well as inhibitor of GLUT1. Then, the GPCC conjugate was co-incubated with the cells for 4 h. At the end of the incubation time, the conjugate solutions were withdrawn from the wells, and the cells were washed three times with cold PBS. After fixation with 4% paraformaldehyde, the cells were qualitatively analyzed by fluorescence microscopy (IX71, Olympus, Tokyo, Japan). After trypsinization and re-suspension of the cells in PBS (pH 7.4), the fluorescence intensity was quantitatively analyzed by flow cytometry (BD FACSAria III, Piscataway, NJ).
Data set [7] can be described thus: Pharmacokinetic study after intravenous administration. It is filed as in vivo. Conditions: rats; for maximum plasma drug concentration: 1.5 mg/kg CPT i.v., 5 min post administration. The method, then: The rats were fasted for 12 h with free access to water before the experiment. Briefly, 0.5 ml of blood was collected in centrifuge tubes at predefined times of 0.083, 0.33, 0.5, 1, 2, 4, 8, 12, and 24 h. Blood samples were centrifuged at 15,000 rpm for 15 min at 4 °C to isolate plasma fractions. Then, 100 μL of methanol was added to the plasma, and the mixture was extracted with 2 mL hexane and 1 mL dichloromethane. The mixture was vortexed for 10 min and centrifuged at 15,000 rpm for 15 min, and the supernatant was collected and dried using a stream of nitrogen gas. The resultant residue was redissolved in 200 μL methanol and stored at −20 °C until further analysis.

For data set [8], the system named is H22 tumor-bearing mice. The data set is described as follows: In vivo and ex vivo imaging of tumor targeting. Particulars: in vivo imaging, 1 mg/kg CPT i.v. The procedure: as §1
Mice were intravenously injected with conjugates at 1 mg/kg CPT concentration. […] Afterward, the tumor-bearing mice were immediately sacrificed by carbon dioxide asphyxiation. Subsequently, major organs (such as tumor, liver, spleen, brain, heart, kidney, and lung) were harvested and visualized.

For data set [9], the system named is L02 cells. The data set is described as follows: MTT cytotoxicity. Format: cell-based. Particulars: 24 h.
Experimental: The cytotoxicity of different conjugates on HepG2 and L02 cells was determined using 3-(4,5-dimethyl-2-thiazolyl)-2,5-diphenyl-2-H-tetrazolium bromide (MTT) method. The cells were seeded in 96-well culture plates at a density of 5 × 10^3 cells/well. Then the cells were treated with conjugates and free CPT at CPT concentrations ranging from 3 nM to 20 μM at 37 °C for 24 h when 60–70% confluence was reached. After that, the drug solution was replaced with MTT at a concentration of 5 mg/mL, and co-incubated with cells for another 4 h. The supernatant was discarded and adding with 150 μL DMSO to dissolve the MTT-formazan. The absorbance at 492 nm was recorded using a microplate reader.
Data set [10] is described as follows: Particle size by dynamic light scattering (DLS). It is filed as physicochemical. Conditions: conjugates at 10 mg/ml. The method, then: The particle sizes and zeta potential of different conjugates at 10 mg/ml were determined using a dynamic light scattering (DLS) particle size analyzer (Nicomp 380 Zeta Potential/Particle Sizer, Santa Barbara, CA). Following staining with 2% sodium phosphotungstate solution, the conjugate morphologies were observed using transmission electron microscopy (TEM) at an accelerating voltage of 100 kV (JEM 1400 JOEL, Akishima City, Tokyo Prefecture, Japan).

Data set [11] deals with H22 tumor-bearing mice. Put plainly: Toxicity in the efficacy study (body weight, H&E staining). It is filed as in vivo. Conditions: for H&E histology of liver and spleen: 1 mg/kg CPT i.v., day 12. The method, then:
as §2

The nature of data set [12]: In vitro CPT release by dialysis in PBS with GSH. Particulars: compared with MPCC and GPCC. It is filed as physicochemical. The method, then:
A dialysis method was used to determine the in vitro CPT release of conjugates. Conjugates at concentrations of 1 mg/ml were placed in dialysis bags (MWCO 3500 Da) and immersed in 50 ml PBS (pH 7.4) containing different concentrations of GSH (0 μM, 10 μM and 10 mM) to mimic various cellular microenvironment conditions. The drug release was conducted at 100 rpm and 37 °C. During dialysis, 1 ml aliquots were withdrawn from the release medium at predefined intervals, and 1 ml of fresh release medium was added to maintain a constant total volume. The CPT concentrations were determined by HPLC.

Where [13] appears, read: 1.5 mg CPT/kg i.v., two-compartment model.
[14] abbreviates: rat, plasma, iv, 1.5 mg/kg, 1.5 mg CPT/kg i.v., two-compartment model.

Like-named read-outs stand apart in the source and are kept apart here.

As to “Glucose–PEG–PAMAM-s-s–Camptothecin-Cy7 [GPCC]”, the subcellular localization entry in data set [1] is recorded as “accumulated in HepG2 nuclei more than the MPCC conjugate”. In data set [2], this compound gave a S phase percentage of 37.15%. For the same compound, in [3], the apoptosis induction effect entry is given as “increased obviously”. The tumor inhibition result in data set [4] (1 mg/kg CPT i.v. on days 0, 2, 4, 6, 8, 10, versus CPT suspension and other conjugate groups, p < .05) is reported as “significantly better tumor inhibition rates”. Besides, in data set [4] (1 mg/kg CPT i.v., day 12), the “H&E histology of tumor tissue” value is “widespread necrosis in tumor tissues”. In addition, in [4] (1 mg/kg CPT i.v., end of experiment, p < .05), the tumor weight entry is given as “significantly less than that of the MPCC conjugate”. Besides, the “cellular uptake in MCTS” value in data set [5] is given as “obviously stronger cellular uptake than the MPCC conjugate”. Besides, the “cellular uptake relative to MPCC” value in data set [6] is “approximately two-fold”.

Consider mPEG–PAMAM–CPT–Cy7 [MPCC], for which, in data set [7] (setting [13]), the “AUC(0–t)” value turned out to be 4677 ± 654 ng·h/mL, the “AUC(0–∞)” value was 4895 ± 620 ng·h/mL, the CL was 5.17 ± 0.617 mL/min/kg and the Cmax came out at 3807 ± 144 ng/mL. Also, in data set [7] (setting [13]), the “MRT(0–t)” value is listed as 4.341 ± 0.9 h, the “MRT(0–∞)” value was 5.81 ± 1.141 h, the “V (apparent volume of distribution)” value is given as 3.207 ± 1.638 L/kg and the t1/2 was determined as 0.258 ± 0.027 h. Also, in [7], the “maximum plasma drug concentration” value amounted to 3.81 µg/mL. Also, in [2], the S phase percentage is recorded as 32.94%. For the same compound, in data set [8], the “time of maximum distribution at tumor sites” value was found to be 4 h. Further, the cytotoxicity entry in data set [9] is recorded as “lower than that of PCC”. The “particle size (DLS)” value in data set [10] was 19.6 nm.

For the compound `CC[C@@]1(O)C(=O)OCc2c1cc1n(c2=O)Cc2cc3ccccc3nc2-1` [CPT, camptothecin], the subcellular localization entry in data set [1] is listed as “hardly observed in the cells”. Further, in data set [7] (setting [14]), the AUC(0-inf) stood at 753 ± 92 ng·h/mL, the AUC(0-t) amounted to 748 ± 92 ng·h/mL, the Tmax came to 1.98 min and the clearance is 33.6 mL/min/kg. Further, the half-life in [7] (setting [14]) is 9.9 ± 8.04 min. For the same compound, the Cmax in [7] (rat, plasma, iv, 1.5 mg/kg, 1.5 mg CPT/kg i.v., two-compartment model, read-out: Cmax) turned out to be 917 ± 50 ng/mL. Besides, in data set [7] (rat, plasma, iv, 1.5 mg/kg, 1.5 mg CPT/kg i.v., two-compartment model, read-out: MRT(0–t)), the MRT last amounted to 2.4 ± 0.288 h. In addition, in [7] (rat, plasma, iv, 1.5 mg/kg, 1.5 mg CPT/kg i.v., two-compartment model, read-out: MRT(0–∞)), the MRT inf was 2.59 ± 0.291 h. Moreover, the Vd in [7] (rat, plasma, iv, 1.5 mg/kg, 1.5 mg CPT/kg i.v., two-compartment model, read-out: V (apparent volume of distribution)) was found to be 10.6 ± 1.18 L/kg. Also, in data set [7], the “maximum plasma drug concentration” value worked out at 0.92 µg/mL. In data set [2], this compound returned a S phase percentage of 27.49%. The apoptosis induction effect result in data set [3] is “highest apoptosis induction effect”. In [11] (1 mg/kg CPT i.v. on days 0, 2, 4, 6, 8, 10), the body weight change result is “smallest increase”. For the same compound, in [11], the “H&E histology of liver and spleen” value was “significant hepatotoxicity and spleen toxicity”.

Regarding PAMAM–CPT–Cy7 [PCC], the subcellular localization entry in data set [1] is on record as “accumulated in the nuclei of the HepG2 cells”. In addition, in data set [7] (setting [13]), the “AUC(0–t)” value was determined as 3594 ± 665 ng·h/mL, the “AUC(0–∞)” value came to 4038 ± 505 ng·h/mL, the CL was found to be 6.27 ± 0.767 mL/min/kg and the Cmax was determined as 2530 ± 330 ng/mL. In data set [7] (setting [13]), the “MRT(0–t)” value is 5.042 ± 0.225 h, the “MRT(0–∞)” value turned out to be 9.566 ± 6.991 h, the “V (apparent volume of distribution)” value is on record as 5.104 ± 3.531 L/kg and the t1/2 was determined as 0.398 ± 0.045 h. Moreover, the “maximum plasma drug concentration” value in [7] amounted to 2.53 µg/mL. This compound yielded a S phase percentage in data set [2] of 34.7%. The “fluorescence in tumor sites” value in data set [8] is listed as “slight fluorescence”. In addition, the CPT release rate entry in data set [12] was “slightly increased release rate”. For the same compound, the “H&E histology of liver and spleen” value in [11] is “significant hepatotoxicity and spleen toxicity”. Also, the “cellular uptake in MCTS” value in [5] is on record as “obviously stronger cellular uptake than the MPCC conjugate”. The “particle size (DLS)” value in [10] worked out at 17.6 nm.

For the origin of these results see article PMC6058575, “Enhanced anti-hepatocarcinoma efficacy by GLUT1 targeting and cellular microenvironment-responsive PAMAM–camptothecin conjugate” (Drug Delivery, 2017).
